Laboratory results published in patent US8987193B2, “Nisin derivatives and the use thereof” (University College Cork—National University of Ireland, Cork, priority 2008, dated 2015).
Entries after “also recorded” stand apart in the source; their conditions may differ. Ends that are not written are not given here.

What was measured:
[1] = system: indicator strains; assay: Deferred antagonism assays, various indicator strains (summary); format: cell-based; details: for Target strain against which the hinge mutant was selected for enhanced bioactivity: XX and XXX banks, L. lactis HP*: enhanced or equal; for Target strain against which the hinge mutant was selected for enhanced bioactivity / Strain(s) against which the derivative (producing strain) displays enhanced bioactivity: relative to nisin A-producing control; for Strain(s) against which the derivative (producing strain) displays enhanced bioactivity: value = strains listed; for number of targets with enhanced activity: of the 8 additional targets tested
Description: (§1) Deferred antagonism assays were performed by replicating strains on GM17 or GM17 x-gal agar plates and allowing them to grow overnight before overlaying with either GM17/BHI/TS/MH agar (0.75% w/v agar) seeded with the appropriate indicator strain. Zone size was calculated as the diameter of the zone of clearing minus the diameter of bacterial growth (5 mm) For higher throughput screening of N20PXX, XM21VX, XXK22T and XXX banks deferred antagonism assays were performed by replicating strains using a 96 pin replicator (Boekel) or spotting 5 μl of a fresh overnight culture on GM17 agar plates and allowing them to grow overnight. […] Additional sets of indicators were employed to further assess/reassess the bioactivity of a number of strains. […] For well-diffusion assays molten agar was cooled to 48° C. and seeded with the appropriate indicator strain. The inoculated medium was rapidly transferred into sterile Petri plates in 50 ml volumes, allowed to solidify and dried. Wells (4.6 mm in diameter) were then made in the seeded plates. Purified nisin and mutant nisins were resuspended in 0.005% acetic acid, serially diluted, 50 μl volumes were dispensed into the aforementioned wells and the plates incubated at 37° C. overnight. Bioactivity was expressed as arbitrary units/ml (AU/ml) and calculated as the reciprocal of the highest dilution that gave a definite zone multiplied by the conversion factor (i.e. 20 when 50 μl was used) (Ryan et al., 1996).

[2] = system: L. lactis CBC7; assay: Deferred antagonism assay; format: cell-based; design: key: + = Enhanced bioactivity relative to control; − = Bioactivity equal to or less than control; NA = no activity evident; details: XX and XXX hinge mutant producers
Description: as §1
(§2) As a consequence of the enhanced activities of K22T and K22S, a more in-depth investigation of this region was carried out. Saturation mutagenesis was undertaken to create a bank of nisin A hinge derivatives containing the vast majority of possible amino acid substitutions for each position. Although pPTPL was used successfully for random mutagenesis, its relatively large size of approx 10.5 kb was considered unsuitable for the complete plasmid PCR amplification approach utilized for saturation mutagenesis. A smaller (approx 6 kb) E. coli-L. lactis shuttle vector pCI372 was considered to be potentially more useful. Its suitability with respect to the in trans expression of nisA was confirmed by the ability of pDFO5 to restore the nisin positive phenotype. Saturation mutagenesis was performed on each codon using pDF05 and oligonucleotides (Table 5) that replace the specific codon with a NNK triplet, potentially encoding all 20 standard amino acids. Following complete plasmid amplification and introduction into the intermediate Top10 host, sequence analysis of a pooled bank of pDF05 derivatives confirmed randomization. Introduction of these variants into L. lactis NZ9800 allowed the expression of mutant nisin A peptides for further analysis. […] 46 residue conversions were isolated. All strains, regardless of bioactivity, were assessed with a view to comprehensively assessing the consequences of each individual hinge alteration.

[3] = system: S. aureus CBC4; assay: Deferred antagonism assay; format: cell-based; design: key: + = Enhanced bioactivity relative to control; − = Bioactivity equal to or less than control; NA = no activity evident; details: XX and XXX hinge mutant producers
Description: as §1, §2

[4] = system: L. lactis CBC8; assay: Deferred antagonism assay; format: cell-based; design: key: + = Enhanced bioactivity relative to control; − = Bioactivity equal to or less than control; NA = no activity evident; details: XX and XXX hinge mutant producers
Description: as §1, §2

[5] = system: L. plantarum CBC6; assay: Deferred antagonism assay; format: cell-based, Lactobacillus plantarum; design: key: + = Enhanced bioactivity relative to control; − = Bioactivity equal to or less than control; NA = no activity evident; details: XX and XXX hinge mutant producers
Description: as §1, §2

[6] = system: L. monocytogenes CBC2; assay: Deferred antagonism assay; format: cell-based, Listeria monocytogenes; design: key: + = Enhanced bioactivity relative to control; − = Bioactivity equal to or less than control; NA = no activity evident; details: L. mono CBC2; XX and XXX hinge mutant producers
Description: as §1, §2

[7] = system: L. monocytogenes CBC3; assay: Deferred antagonism assay; format: cell-based, Listeria monocytogenes; design: key: + = Enhanced bioactivity relative to control; − = Bioactivity equal to or less than control; NA = no activity evident; details: L. mono CBC3; XX and XXX hinge mutant producers
Description: as §1, §2

[8] = system: L. monocytogenes CBC1; assay: Deferred antagonism assay; format: cell-based, Listeria monocytogenes; design: key: + = Enhanced bioactivity relative to control; − = Bioactivity equal to or less than control; NA = no activity evident; details: L. mono CBC1; XX and XXX hinge mutant producers
Description: as §1, §2

Substance	Target strain against which the hinge mutant was selected for enhanced bioactivity [1]	number of strains with bioactivity ([1]; of the 16 strains tested)	Strain(s) against which the derivative (producing strain) displays enhanced bioactivity [1]	bioactivity relative to a nisin A-producing control [2]	bioactivity relative to a nisin A-producing control [3]	bioactivity relative to a nisin A-producing control [4]	bioactivity relative to a nisin A-producing control [5]	bioactivity relative to a nisin A-producing control [6]	bioactivity relative to a nisin A-producing control [7]	bioactivity relative to a nisin A-producing control [8]	number of targets with enhanced activity [1]
NisinA PAK	Staph. aureus RF122/L. lactis HP*	7	S. aureus RF122 , CBC4 , NCDO1499 and DPC5246, L. lactis MG1363 , and L. monocytogenes 10403S and EGDe; also recorded: DPC5246, NCDO1499, L. mono 10403S and EGDe	−	+	−	−	−	−	−	
NisinA PIA	Staph. aureus RF122		B. cereus UCC1	−	−	−	−	−	−	−	
NisinA GVK	C. sporogenes UCC1		C. sporogenes UCC1, L. monocytogenes CBC3, S. aureus CBC4 and L. lactis CBC7 and C. sporogenes UCC1, L. mono CBC3, S. aureus CBC4, L. lactis and CBC7	+	+	−	−	−	+	−	3
NisinA GLA (ITSISLCTPGCKTGALMGCGLATATCHCSIHVSK; cysteine pairing not given here; also: lantibiotic nisin-A; UniProt P13068 24-57, looked up, variant N20G M21L K22A) [nisin A hinge variant GLA (i.e. N20G, M21L, K22A)]	B. cereus UCC1		B. cereus UCC1	−	−	−	−	−	−	−	1
NisinA PNR (ITSISLCTPGCKTGALMGCPNRTATCHCSIHVSK; not fully specified (bridges); also: lantibiotic nisin-A: lanthionine rings and dehydrated residues, places not given here; UniProt P13068 24-57, looked up, variant N20P M21N K22R) [nisin A hinge variant PNR (i.e. N20P, M21N, K22R)]	Staph. aureus RF122		S. aureus RF122	−	−	−	−	−	−	−	
NisinA PIM	Staph. aureus RF122		B. cereus UCC1	−	−	−	−	−	−	−	
NisinA PLA (ITSISLCTPGCKTGALMGCPLATATCHCSIHVSK; not fully specified (bridges); also: lantibiotic nisin-A: lanthionine rings and dehydrated residues, places not given here; UniProt P13068 24-57, looked up, variant N20P M21L K22A) [nisin A hinge variant PLA (i.e. N20P, M21L, K22A)]	B. cereus UCC1		B. cereus UCC1 and S. aureus CBC4	−	+	−	−	−	−	−	
NisinA PMM	Staph. aureus RF122		B. cereus UCC1; also recorded: B. cereus UCC	−	−	−	−	−	−	−	
NisinA PTL (ITSISLCTPGCKTGALMGCPTLTATCHCSIHVSK; thioether (positions not given here); not fully specified (residues 2, 5, 33, bridges); also: lantibiotic nisin A, thioether rings and dehydro residues not given here; UniProt P13068 24-57, looked up, variant N20P M21T K22L) [nisin A hinge variant PTL (i.e. N20P, M21T, K22L)]	C. sporogenes UCC1		C. sporogenes UCC1, L. monocytogenes CBC3 and CBC 4 , and L. lactis CBC7; also recorded: C. sporogenes UCC1, L mono CBC3, 4, L. lactis CBC7	+	+	−	−	−	+	−	3
NisinA PMT	Staph. aureus RF122		S. aureus RF122	−	−	−	−	−	−	−	
